Assay results reported in patent US12331040B2 (Karyopharm Therapeutics Inc., priority 2013, dated 2025).

Assays:
Experiment in all cases: MTT cell proliferation assay
Format in all cases: cell-based
AML-193 cells = details: 72-hour MTT
Outline: (§1)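 After overnight attachment at 5,000-10,000 cells per well, cultures receive test compound at eight levels (1 nM to 30 μM) for 72 h, followed by roughly 4 h with MTT. Dissolved formazan is quantified at 490 nm, giving percent inhibition against untreated control.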

ARPE-19 cells = details: Homo sapiens, 72-hour MTT
Outline: as §1

CAMA-1 cells = details: Homo sapiens, 72-hour MTT
Outline: as §1

Calu-6 cells = details: Homo sapiens, 72-hour MTT
Outline: as §1

DU-4475 cells = details: Homo sapiens, 72-hour MTT
Outline: as §1

Daudi cells = details: Homo sapiens, 72-hour MTT
Outline: as §1

HCC-1428 cells = details: Homo sapiens, HCC1428, 72-hour MTT
Outline: as §1

HCC-2935 cells = details: Homo sapiens, HCC2935, 72-hour MTT
Outline: as §1

HCI-H358 cells = details: 72-hour MTT
Outline: as §1

HH cells = details: Homo sapiens, 72-hour MTT
Outline: as §1

HPAC cells = details: Homo sapiens, 72-hour MTT
Outline: as §1

HPAF-II cells = details: Homo sapiens, 72-hour MTT
Outline: as §1

HuCCT-1 cells = details: Homo sapiens, 72-hour MTT
Outline: as §1

KG-1 cells = details: Homo sapiens, 72-hour MTT
Outline: as §1

L3.6pl cells = details: Homo sapiens, 72-hour MTT
Outline: as §1

LN18 cells = details: Homo sapiens, LN-18, 72-hour MTT
Outline: as §1

LS-180 cells = details: Homo sapiens, LS180, 72-hour MTT
Outline: as §1

MCF-10A cells = details: Homo sapiens, 72-hour MTT
Outline: as §1

MHCC97H cells = details: Homo sapiens, 72-hour MTT
Outline: as §1

NCI-H1299 cells = details: Homo sapiens, 72-hour MTT
Outline: as §1

NCI-H187 cells = details: Homo sapiens, 72-hour MTT
Outline: as §1

NCI-H1993 cells = details: Homo sapiens, 72-hour MTT
Outline: as §1

NCI-H2170 cells = details: Homo sapiens, 72-hour MTT
Outline: as §1

NCI-H520 cells = details: Homo sapiens, 72-hour MTT
Outline: as §1

NCI-H820 cells = details: 72-hour MTT
Outline: as §1

NCI-H889 cells = details: Homo sapiens, 72-hour MTT
Outline: as §1

NCI-H929 cells = details: Homo sapiens, 72-hour MTT
Outline: as §1

OCIAML5 cells = details: Homo sapiens, OCI-AML-5, 72-hour MTT
Outline: as §1

PATU-8988S cells = details: PaTuÂ 8988s, 72-hour MTT
Outline: as §1

PATU-8988T cells = details: Homo sapiens, 72-hour MTT
Outline: as §1

PBMC = details: 72-hour MTT
Outline: as §1

PL-45 cells = details: PL45, 72-hour MTT
Outline: as §1

Pfieffer cells = details: 72-hour MTT
Outline: as §1

SHSY5Y cells = details: Homo sapiens, SH-SY5Y, 72-hour MTT
Outline: as §1

SK-CO-1 cells = details: Homo sapiens, 72-hour MTT
Outline: as §1

SW-1116 cells = details: Homo sapiens, 72-hour MTT
Outline: as §1

SW-1417 cells = details: Homo sapiens, SW1417, 72-hour MTT
Outline: as §1

SW-403 cells = details: Homo sapiens, 72-hour MTT
Outline: as §1

SW-620 cells = details: Homo sapiens, 72-hour MTT
Outline: as §1

SW-837 cells = details: Homo sapiens, SW837, 72-hour MTT
Outline: as §1

WI-38 cells = details: Homo sapiens, 72-hour MTT
Outline: as §1

Work on `Nc1ccc(/C=C/C(=O)NCc2cc3cc(-c4ccc(C(=O)N5CCC(F)(F)CC5)cn4)cc(C(F)(F)F)c3o2)cn1` [Compound 585, (E)-3-(6-aminopyridin-3-yl)-N-((5-(5-(4,4-difluoropiperidine-1-carbonyl)pyridin-2-yl)-7-(trifluoromethyl)benzofuran-2-yl)methyl)acrylamide] yielded an IC50 (AML-193 cells) of 30 nM, an IC50 (ARPE-19 cells) of 780 nM and an IC50 (CAMA-1 cells) of 1060 nM. The IC50 (Calu-6 cells) was 350 nM, the IC50 (DU-4475 cells) was 90 nM and the IC50 (Daudi cells) was 40 nM. For the same molecule, the IC50 (HCC-1428 cells) was 4400 nM, the IC50 (HCC-2935 cells) was 4390 nM and the IC50 (HCI-H358 cells) was 800 nM. For the same molecule, the IC50 (HH cells) was 90 nM, the IC50 (HPAC cells) was 380 nM and the IC50 (HPAF-II cells) was 550 nM. It also gave an IC50 (HuCCT-1 cells) of 60 nM, an IC50 (KG-1 cells) of 150 nM and an IC50 (L3.6pl cells) of 70 nM. It also gave an IC50 (LN18 cells) of 1660 nM, an IC50 (LS-180 cells) of 150 nM and an IC50 (MCF-10A cells) of 140 nM. The IC50 (MHCC97H cells) was greater than 10000 nM, the IC50 (NCI-H1299 cells) was 190 nM and the IC50 (NCI-H187 cells) was 70 nM. For the same molecule, the IC50 (NCI-H1993 cells) was greater than 10000 nM, the IC50 (NCI-H2170 cells) was 1260 nM and the IC50 (NCI-H520 cells) was 20 nM. The IC50 (NCI-H820 cells) was 2840 nM, the IC50 (NCI-H889 cells) was 60 nM and the IC50 (NCI-H929 cells) was 930 nM. For the same molecule, the IC50 (OCIAML5 cells) was 50 nM, the IC50 (PATU-8988S cells) was 470 nM and the IC50 (PATU-8988T cells) was 540 nM. For the same molecule, the IC50 (PBMC) was 2200 nM, the IC50 (PL-45 cells) was 1010 nM and the IC50 (Pfieffer cells) was 80 nM. It also gave an IC50 (SHSY5Y cells) of 120 nM, an IC50 (SK-CO-1 cells) of 1190 nM and an IC50 (SW-1116 cells) of 970 nM. The IC50 (SW-1417 cells) was 1270 nM, the IC50 (SW-403 cells) was 380 nM and the IC50 (SW-620 cells) was 140 nM. The IC50 (SW-837 cells) was 600 nM and the IC50 (WI-38 cells) was 220 nM.
